# Source: patent US20220119354A1, “DIAMINO-SUBSTITUTED PYRIDINES AND PYRIMIDINES AS HERBICIDES” (FMC Corporation, priority 2019, published 2022)
# Columns and labels:
# Format in all cases: in vivo
# [1] = system: ryegrass, Italian (Lolium multiflorum); test: Test A preemergence, Italian ryegrass; settings: 0 to 100 scale, 0 is no effect, 100 is complete control
# Outline: (§1)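 Seeds sown in loam–sand blend received a directed soil spray of test chemical in non-phytotoxic solvent with surfactant (preemergence); postemergence plants at 2–10 cm, one- to two-leaf stage, were sprayed with the same formulation. Injury rated visually versus untreated controls after ~10 d in greenhouse, 0–100 scale.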
# [2] = system: blackgrass (Alopecurus myosuroides); test: Test A postemergence, blackgrass; settings: Alopecurus myosuroides, post-emergence, 240 h, 0 to 100 scale, 0 no effect, 100 complete control, read-out: Plant response rating, Blackgrass; for pest or weed control at 125 g/ha: 125 g ai/ha; for pest or weed control at 500 g/ha: 500 g ai/ha
# Outline: as §1
# [3] = system: barnyardgrass (Echinochloa crus-galli); test: Test A preemergence, barnyardgrass; settings: 0 to 100 scale, 0 is no effect, 100 is complete control
# Outline: as §1
# [4] = system: ryegrass, Italian (Lolium multiflorum); test: Test A postemergence, Italian ryegrass; settings: Lolium multiflorum, post-emergence, 240 h, 0 to 100 scale, 0 no effect, 100 complete control, read-out: Plant response rating, Ryegrass, Italian; for pest or weed control at 125 g/ha: 125 g ai/ha; for pest or weed control at 500 g/ha: 500 g ai/ha
# Outline: as §1
# [5] = system: pigweed (Amaranthus retroflexus); test: Test A postemergence, pigweed; settings: Amaranthus retroflexus, post-emergence, 240 h, 0 to 100 scale, 0 no effect, 100 complete control, read-out: Plant response rating, Pigweed; for pest or weed control at 125 g/ha: 125 g ai/ha; for pest or weed control at 500 g/ha: 500 g ai/ha
# Outline: as §1
# kochia (Kochia scoparia) [6] = test: Test A postemergence, kochia; settings: Bassia scoparia, post-emergence, 240 h, 0 to 100 scale, 0 no effect, 100 complete control, read-out: Plant response rating, Kochia; for pest or weed control at 125 g/ha: 125 g ai/ha; for pest or weed control at 500 g/ha: 500 g ai/ha
# Outline: as §1
# [7] = system: ragweed (common ragweed, Ambrosia elatior); test: Test A preemergence, ragweed; settings: 0 to 100 scale, 0 is no effect, 100 is complete control
# Outline: as §1
# rice (Oryza sativa) = test: Test B flooded paddy test, rice; settings: Oryza sativa, 360 h; Flood, 250 g ai/ha, applied to paddy water, 2-leaf stage, visual evaluation after 13 to 15 d; read-out: Plant response rating, Rice (0 to 100 scale, 0 is no effect, 100 is complete control)
# Outline: (§2)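 Plants grown to 2-leaf stage. Compounds applied directly into paddy water flooded 3 cm above soil, with that depth kept throughout. After 13–15 d in greenhouse, visual rating versus controls on a 0–100 scale (0 no effect, 100 complete control).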
# corn (Zea mays) = test: Test A postemergence, corn; settings: Zea mays, post-emergence, 240 h, 0 to 100 scale, 0 no effect, 100 complete control; for Corn plant response rating (crop injury, 0 = no effect, 100 = complete kill) at 125 g/ha: 125 g ai/ha; for Corn plant response rating (crop injury, 0 = no effect, 100 = complete kill) at 500 g/ha: 500 g ai/ha
# Outline: as §1
# [8] = system: ragweed (common ragweed, Ambrosia elatior); test: Test A postemergence, ragweed; settings: Ambrosia artemisiifolia, post-emergence, 240 h, 0 to 100 scale, 0 no effect, 100 complete control, read-out: Plant response rating, Ragweed; for pest or weed control at 125 g/ha: 125 g ai/ha; for pest or weed control at 500 g/ha: 500 g ai/ha
# Outline: as §1
# [9] = system: galium (catchweed bedstraw, Galium aparine); test: Test A postemergence, galium; settings: Galium, post-emergence, 240 h, 0 to 100 scale, 0 no effect, 100 complete control, read-out: Plant response rating, Galium; for pest or weed control at 125 g/ha: 125 g ai/ha; for pest or weed control at 500 g/ha: 500 g ai/ha
# Outline: as §1
# [10] = system: foxtail, giant (Setaria faberii); test: Test A postemergence, giant foxtail; settings: Setaria faberi, post-emergence, 240 h, 0 to 100 scale, 0 no effect, 100 complete control, read-out: Plant response rating, Foxtail, Giant; for pest or weed control at 125 g/ha: 125 g ai/ha; for pest or weed control at 500 g/ha: 500 g ai/ha
# Outline: as §1
# [11] = system: ducksalad (Heteranthera limosa); test: Test B flooded paddy test, ducksalad; settings: Heteranthera limosa, 360 h; Flood, 250 g ai/ha, applied to paddy water, 2-leaf stage, visual evaluation after 13 to 15 d; read-out: Plant response rating, Ducksalad (0 to 100 scale, 0 is no effect, 100 is complete control)
# Outline: as §2
# [12] = system: barnyardgrass (Echinochloa crus-galli); test: Test B flooded paddy test, barnyardgrass; settings: Echinochloa crus-galli, 360 h; Flood, 250 g ai/ha, applied to paddy water, 2-leaf stage, visual evaluation after 13 to 15 d; read-out: Plant response rating, Barnyardgrass (0 to 100 scale, 0 is no effect, 100 is complete control)
# Outline: as §2
# kochia (Kochia scoparia) [13] = test: Test A preemergence, kochia; settings: 0 to 100 scale, 0 is no effect, 100 is complete control
# Outline: as §1
# [14] = system: foxtail, giant (Setaria faberii); test: Test A preemergence, giant foxtail; settings: 0 to 100 scale, 0 is no effect, 100 is complete control
# Outline: as §1
# [15] = system: sedge, umbrella (small-flower umbrella sedge, Cyperus difformis); test: Test B flooded paddy test, umbrella sedge; settings: Cyperus difformis, 360 h; Flood, 250 g ai/ha, applied to paddy water, 2-leaf stage, visual evaluation after 13 to 15 d; read-out: Plant response rating, Sedge, Umbrella (0 to 100 scale, 0 is no effect, 100 is complete control)
# Outline: as §2
SMILES,"Ryegrass, Italian plant response rating ([1]; 125 g ai/ha)","Ryegrass, Italian plant response rating ([1]; 500 g ai/ha)",pest or weed control at 125 g/ha [2] [%],pest or weed control at 500 g/ha [2] [%],Barnyardgrass plant response rating ([3]; 125 g ai/ha),Barnyardgrass plant response rating ([3]; 500 g ai/ha),pest or weed control at 125 g/ha [4] [%],pest or weed control at 500 g/ha [4] [%],pest or weed control at 125 g/ha [5] [%],pest or weed control at 500 g/ha [5] [%],pest or weed control at 125 g/ha (kochia (Kochia scoparia) [6]) [%],pest or weed control at 500 g/ha (kochia (Kochia scoparia) [6]) [%],Ragweed plant response rating ([7]; 125 g ai/ha),Ragweed plant response rating ([7]; 500 g ai/ha),plant injury at 250 g/ha (rice (Oryza sativa)) [%],"Corn plant response rating (crop injury, 0 = no effect, 100 = complete kill) at 125 g/ha (corn (Zea mays)) [%]","Corn plant response rating (crop injury, 0 = no effect, 100 = complete kill) at 500 g/ha (corn (Zea mays)) [%]",pest or weed control at 125 g/ha [8] [%],pest or weed control at 500 g/ha [8] [%],pest or weed control at 125 g/ha [9] [%],other results
"C[C@@H](Nc1ncc(C(F)(F)F)c(N)n1)c1cc2c(F)cccc2o1 [Compound 73, N2-[(1R)-1-(4-fluoro-2-benzofuranyl)ethyl]-5-(trifluoromethyl)-2,4-pyrimidinediamine]",100,100,50,80,90,100,90,100,100,100,90,100,100,100,10,30,40,90,100,90,"pest or weed control at 500 g/ha [9]: 90%; pest or weed control at 125 g/ha [10]: 70%; pest or weed control at 500 g/ha [10]: 100%; pest or weed control at 250 g/ha [11]: 98%; pest or weed control at 250 g/ha [12]: 65%; Kochia plant response rating (kochia (Kochia scoparia) [13]; 125 g ai/ha): 100; Kochia plant response rating (kochia (Kochia scoparia) [13]; 500 g ai/ha): 100; Foxtail, Giant plant response rating ([14]; 125 g ai/ha): 100; Foxtail, Giant plant response rating ([14]; 500 g ai/ha): 100; pest or weed control at 250 g/ha [15]: 90%"
"C[C@@H](Nc1ncc(C(F)(F)F)c(N)n1)c1cc2cccc(F)c2s1 [Compound 75, N2-[(1R)-1-(7-fluorobenzo[b]thien-2-yl)ethyl]-5-(trifluoromethyl)-2,4-pyrimidinediamine]",80,100,0,30,90,90,0,50,100,100,80,90,100,100,0,0,10,70,90,80,"pest or weed control at 500 g/ha [9]: 80%; pest or weed control at 125 g/ha [10]: 60%; pest or weed control at 500 g/ha [10]: 90%; pest or weed control at 250 g/ha [11]: 95%; pest or weed control at 250 g/ha [12]: 40%; Kochia plant response rating (kochia (Kochia scoparia) [13]; 125 g ai/ha): 90; Kochia plant response rating (kochia (Kochia scoparia) [13]; 500 g ai/ha): 100; Foxtail, Giant plant response rating ([14]; 125 g ai/ha): 90; Foxtail, Giant plant response rating ([14]; 500 g ai/ha): 100; pest or weed control at 250 g/ha [15]: 98%"
